The values that follow are results of earlier work, collected in patent US11191839B2, “Composition for treatment of infertility in a subject” (priority 2015, dated 2021).

The test system of this data set is couples with unexplained infertility. Particulars: pertubation with low doses before artificial insemination; Edelstam et al. 2008.

On to `CCN(CC)CC(=O)Nc1c(C)cccc1C` [lidocaine, Lidocaine], for which the Pregnancy rates entry is on record as “increase pregnancy rates”.
